Source: patent US12630600B2 (MEDIMMUNE LIMITED, priority 2022, dated 2026)
Read-outs that look alike come from different tables or passages of the source. Starred links: 1 amine or outer side, 2 acyl side, 3 side chain; linkers in the order of their positions; H or OH if unused. Non-standard residues stand in square brackets, D forms with d. Residues, ends and D or L forms follow the SMILES beside them. Groups on a side chain read outwards from the residue. *: point of attachment. C20 diacid = O=C(O)CCCCCCCCCCCCCCCCCCC(=O)*; C18 diacid = O=C(O)CCCCCCCCCCCCCCCCC(=O)*; γGlu = O=C(O)[C@H](CCC(=O)[*:2])N[*:1]; Stearoyl = CCCCCCCCCCCCCCCCCC(=O)*; αMeF = C[C@](N)(Cc1ccccc1)C(=O)O; PEG2 = NCCOCCOCCC(=O)O; AEEA = NCCOCCOCC(=O)O; Aib = CC(C)(N)C(=O)O

Key:
[1] = molecular target: T1, human glucagon receptor (hGCGR) (Homo sapiens, UniProt P47871); test: cAMP production (HTRF) in CHO cells expressing human glucagon receptor; type: cell-based; details: read-out: hGluc-R EC50
T1 construct: expressed in transfected cells; host or cells: CHO
T1 sequence (P47871 26-477): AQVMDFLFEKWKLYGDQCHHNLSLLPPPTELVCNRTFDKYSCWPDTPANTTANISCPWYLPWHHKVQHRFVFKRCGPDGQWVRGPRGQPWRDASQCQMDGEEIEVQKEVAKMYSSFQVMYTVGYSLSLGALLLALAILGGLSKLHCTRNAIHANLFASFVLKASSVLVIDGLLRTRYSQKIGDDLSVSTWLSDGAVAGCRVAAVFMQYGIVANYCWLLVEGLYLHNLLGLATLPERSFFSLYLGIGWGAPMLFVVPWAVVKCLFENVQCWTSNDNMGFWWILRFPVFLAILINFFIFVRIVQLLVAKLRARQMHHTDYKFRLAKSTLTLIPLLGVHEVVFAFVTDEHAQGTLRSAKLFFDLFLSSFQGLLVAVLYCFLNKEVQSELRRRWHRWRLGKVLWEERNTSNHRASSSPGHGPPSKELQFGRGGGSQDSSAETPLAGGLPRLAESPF
Description: Cells were re-suspended in assay buffer at a batch-dependent optimized concentration (typically hGLP-1R cells at 1×10^5 cells/mL, hGCGR cells at 2×10^5 cells/mL).
Cells were added to the assay plate using a multidrop dispenser and incubated at room temperature for 30 minutes before measuring the cAMP level using a cAMP dynamic 2 homogeneous time resolved Fluorescence (HTRF) kit (Cisbio Bioassays #62AM4PEJ) following the two-step protocol as per manufacturer's recommendations. In brief, anti-cAMP cryptate (donor fluorophore) and cAMP-d2 (acceptor fluorophore) were made up separately by diluting each 1 in 20 in conjugate and lysis buffer provided in the kit. Anti-cAMP cryptate was added to all wells of the assay plate, followed by cAMP-d2 added to all wells except non-specific binding (NSB) wells (to which conjugate and lysis buffer was added).
Data was transformed to % Delta F as described in the manufacturer's guidelines and analyzed by 4-parameter logistic fit to determine EC50 values.

[2] = molecular target: T2, human GLP-1 receptor (hGLP-1R) (Homo sapiens, UniProt P43220); test: cAMP production (HTRF) in CHO cells expressing human GLP-1 receptor; type: cell-based; details: Table 8; % GLP-1R activity relative to GLP-1 / % GlucR activity relative to glucagon
T2 construct: expressed in transfected cells; host or cells: CHO
T2 sequence (P43220 24-463): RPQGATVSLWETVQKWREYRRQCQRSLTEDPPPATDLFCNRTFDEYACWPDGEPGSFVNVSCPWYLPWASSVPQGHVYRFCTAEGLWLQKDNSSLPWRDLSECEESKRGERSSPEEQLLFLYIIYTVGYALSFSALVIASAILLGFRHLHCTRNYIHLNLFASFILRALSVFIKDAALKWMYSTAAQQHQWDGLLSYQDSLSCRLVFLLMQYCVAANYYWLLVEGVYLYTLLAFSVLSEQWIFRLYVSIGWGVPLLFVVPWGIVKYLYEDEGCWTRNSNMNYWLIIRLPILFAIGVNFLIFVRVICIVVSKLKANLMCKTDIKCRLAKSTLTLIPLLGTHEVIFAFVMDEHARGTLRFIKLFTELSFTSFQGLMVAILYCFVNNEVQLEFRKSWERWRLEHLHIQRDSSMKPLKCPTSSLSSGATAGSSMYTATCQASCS

[3] = Table 6, modification at position 17, CHO cells expressing hGCGR, geometric mean

SMILES	% Relative Potency Ratio [2]	other results
CC(C)C[C@H](NC(=O)[C@H](Cc1c[nH]c2ccccc12)NC(=O)[C@H](CCCNC(=N)N)NC(=O)[C@@H](NC(=O)[C@H](Cc1ccccc1)NC(=O)[C@H](CC(=O)O)NC(=O)[C@H](CCCNC(=N)N)NC(=O)[C@H](C)NC(=O)[C@H](CCCNC(=N)N)NC(=O)[C@H](CCCCNC(=O)CC[C@H](NC(=O)CC[C@H](NC(=O)COCCOCCNC(=O)COCCOCCNC(=O)CC[C@H](NC(=O)CC[C@H](NC(=O)CCCCCCCCCCCCCCCCC(=O)O)C(=O)O)C(=O)O)C(=O)O)C(=O)O)NC(=O)[C@H](CO)NC(=O)[C@H](CC(=O)O)NC(=O)[C@H](CC(C)C)NC(=O)[C@](C)(Cc1ccccc1)NC(=O)[C@H](CCCCN)NC(=O)[C@H](CO)NC(=O)[C@@H](NC(=O)[C@H](CC(=O)O)NC(=O)[C@H](CO)NC(=O)[C@@H](NC(=O)[C@H](Cc1ccccc1)NC(=O)[C@@H](NC(=O)CNC(=O)[C@H](CCC(N)=O)NC(=O)C(C)(C)NC(=O)[C@@H](N)Cc1c[nH]cn1)[C@@H](C)O)[C@@H](C)O)C(C)C)C(C)C)C(=O)N[C@@H](CC(C)C)C(=O)N[C@@H](CCC(=O)O)C(=O)NC(C)(C)C(=O)NCC(=O)O [Peptide 144] (H-H[Aib]QGTFTSDVSK[αMeF]LDSK([γGlu-γGlu-AEEA-AEEA-γGlu-γGlu-C18 diacid])RARDFVRWLLE[Aib]G-OH; N-terminus assumed)		EC50 [1, 3]: 702 pM
CCCCCCCCCCCCCCCCCC(=O)N[C@@H](CCC(=O)N[C@@H](CCC(=O)NCCOCCOCCC(=O)NCCOCCOCCC(=O)NCCCC[C@H](NC(=O)[C@H](CO)NC(=O)[C@H](CC(=O)O)NC(=O)[C@H](CC(C)C)NC(=O)[C@](C)(Cc1ccccc1)NC(=O)[C@H](CCCCN)NC(=O)[C@H](CO)NC(=O)[C@@H](NC(=O)[C@H](CC(=O)O)NC(=O)[C@H](CO)NC(=O)[C@@H](NC(=O)[C@](C)(Cc1ccccc1)NC(=O)[C@H](CO)NC(=O)CNC(=O)[C@H](CCC(N)=O)NC(=O)[C@H](CO)NC(=O)[C@@H](N)Cc1c[nH]cn1)[C@@H](C)O)C(C)C)C(=O)N[C@@H](C)C(=O)N[C@@H](C)C(=O)N[C@@H](CCC(N)=O)C(=O)N[C@@H](CC(=O)O)C(=O)N[C@@](C)(Cc1ccccc1)C(=O)N[C@H](C(=O)N[C@@H](CCC(N)=O)C(=O)NC(C)(C)C(=O)N[C@H](C(=O)N[C@@H](C)C(=O)N[C@@H](CC(N)=O)C(=O)N[C@H](C(N)=O)[C@@H](C)O)[C@@H](C)CC)C(C)C)C(=O)O)C(=O)O [Peptide 82] (H-HSQGS[αMeF]TSDVSK[αMeF]LDSK([PEG2-PEG2-γGlu-γGlu-Stearoyl])AAQD[αMeF]VQ[Aib]IANT-NH2; N-terminus assumed)		EC50 [1, 3]: 7.77 pM
CCCCCCCCCCCCCCCC(=O)N[C@@H](CCC(=O)NCCOCCOCCC(=O)NCCOCCOCCC(=O)NCCCC[C@H](NC(=O)[C@H](CC(=O)O)NC(=O)[C@H](CO)NC(=O)[C@@H](NC(=O)[C@H](Cc1ccccc1)NC(=O)[C@H](CO)NC(=O)CNC(=O)[C@H](CCC(N)=O)NC(=O)C(C)(C)NC(=O)[C@@H](N)Cc1c[nH]cn1)[C@@H](C)O)C(=O)N[C@@H](CO)C(=O)N[C@@H](CCCCN)C(=O)N[C@H](C(=O)N[C@@H](CC(C)C)C(=O)N[C@@H](CC(=O)O)C(=O)N[C@@H](CO)C(=O)N[C@@H](CCCNC(=N)N)C(=O)N[C@@H](C)C(=O)N[C@@H](C)C(=O)N[C@@H](CCC(N)=O)C(=O)N[C@@H](CC(=O)O)C(=O)N[C@@H](Cc1ccccc1)C(=O)N[C@H](C(=O)N[C@@H](CCC(=O)O)C(=O)N[C@@H](Cc1c[nH]c2ccccc12)C(=O)N[C@H](C(=O)N[C@@H](C)C(=O)N[C@@H](CC(N)=O)C(=O)N[C@H](C(N)=O)[C@@H](C)O)[C@@H](C)CC)C(C)C)[C@@H](C)CC)C(=O)O [Peptide 395]		EC50 ([1]; Table 9, peptides modified at position 10, geometric mean, CHO cells): 9.55 pM
CC[C@H](C)[C@H](NC(=O)[C@H](Cc1c[nH]c2ccccc12)NC(=O)[C@H](CCCCNC(=O)CC[C@H](NC(=O)CCCCCCCCCCCCCCCCC(=O)O)C(=O)O)NC(=O)[C@@H](NC(=O)[C@H](Cc1ccccc1)NC(=O)[C@H](CC(=O)O)NC(=O)[C@H](CCC(N)=O)NC(=O)[C@H](C)NC(=O)[C@H](C)NC(=O)[C@H](CCC(N)=O)NC(=O)[C@H](CO)NC(=O)[C@H](CC(=O)O)NC(=O)[C@H](CC(C)C)NC(=O)[C@](C)(Cc1ccccc1)NC(=O)[C@H](CCCCN)NC(=O)[C@H](CO)NC(=O)[C@@H](NC(=O)[C@H](CC(=O)O)NC(=O)[C@H](CO)NC(=O)[C@@H](NC(=O)[C@](C)(Cc1ccccc1)NC(=O)[C@H](CO)NC(=O)CNC(=O)[C@H](Cc1c[nH]cn1)NC(=O)C(C)(C)NC(=O)[C@@H](N)Cc1c[nH]cn1)[C@@H](C)O)C(C)C)C(C)C)C(=O)N[C@@H](C)C(=O)N[C@@H](CC(N)=O)C(=O)N[C@H](C(N)=O)[C@@H](C)O [Peptide 351] (H-H[Aib]HGS[αMeF]TSDVSK[αMeF]LDSQAAQDFVK([γGlu-C18 diacid])WIANT-NH2)	0.7	
CC[C@H](C)[C@H](NC(=O)[C@H](Cc1c[nH]c2ccccc12)NC(=O)[C@H](CCCCNC(=O)COCCOCCNC(=O)COCCOCCNC(=O)CC[C@H](NC(=O)CCCCCCCCCCCCCCCCCCC(=O)O)C(=O)O)NC(=O)[C@@H](NC(=O)[C@H](Cc1ccccc1)NC(=O)[C@H](CC(=O)O)NC(=O)[C@H](CCC(N)=O)NC(=O)[C@H](C)NC(=O)[C@H](C)NC(=O)[C@H](CCCNC(=N)N)NC(=O)[C@H](CO)NC(=O)[C@H](CC(=O)O)NC(=O)[C@H](CC(C)C)NC(=O)[C@](C)(Cc1ccccc1)NC(=O)[C@H](CCCCN)NC(=O)[C@H](CO)NC(=O)[C@@H](NC(=O)[C@H](CC(=O)O)NC(=O)[C@H](CO)NC(=O)[C@@H](NC(=O)[C@](C)(Cc1ccccc1)NC(=O)[C@H](CO)NC(=O)CNC(=O)[C@H](Cc1c[nH]cn1)NC(=O)C(C)(C)NC(=O)[C@@H](N)Cc1c[nH]cn1)[C@@H](C)O)C(C)C)C(C)C)C(=O)N[C@@H](C)C(=O)N[C@@H](CC(N)=O)C(=O)N[C@H](C(N)=O)[C@@H](C)O [Peptide 367] (H-H[Aib]HGS[αMeF]TSDVSK[αMeF]LDSRAAQDFVK([AEEA-AEEA-γGlu-C20 diacid])WIANT-NH2; N-terminus assumed)	1.0	
CC[C@H](C)[C@H](NC(=O)[C@H](Cc1c[nH]c2ccccc12)NC(=O)[C@H](CCCCNC(=O)CCOCCOCCNC(=O)CCOCCOCCNC(=O)CC[C@H](NC(=O)CC[C@H](NC(=O)CCCCCCCCCCCCCCCCCCC(=O)O)C(=O)O)C(=O)O)NC(=O)[C@@H](NC(=O)[C@H](Cc1ccccc1)NC(=O)[C@H](CC(=O)O)NC(=O)[C@H](CCC(N)=O)NC(=O)[C@H](C)NC(=O)[C@H](C)NC(=O)[C@H](CCC(N)=O)NC(=O)[C@H](CO)NC(=O)[C@H](CC(=O)O)NC(=O)[C@H](CC(C)C)NC(=O)[C@](C)(Cc1ccccc1)NC(=O)[C@H](CCCCN)NC(=O)[C@H](CO)NC(=O)[C@@H](NC(=O)[C@H](CC(=O)O)NC(=O)[C@H](CO)NC(=O)[C@@H](NC(=O)[C@](C)(Cc1ccccc1)NC(=O)[C@H](CO)NC(=O)CNC(=O)[C@H](Cc1c[nH]cn1)NC(=O)C(C)(C)NC(=O)[C@@H](N)Cc1c[nH]cn1)[C@@H](C)O)C(C)C)C(C)C)C(=O)N[C@@H](C)C(=O)N[C@@H](CC(N)=O)C(=O)N[C@H](C(N)=O)[C@@H](C)O [Peptide 355] (H-H[Aib]HGS[αMeF]TSDVSK[αMeF]LDSQAAQDFVK([PEG2-PEG2-γGlu-γGlu-C20 diacid])WIANT-NH2; N-terminus assumed)	2.2	
CC[C@H](C)[C@H](NC(=O)[C@H](Cc1c[nH]c2ccccc12)NC(=O)[C@H](CCCCNC(=O)COCCOCCNC(=O)COCCOCCNC(=O)CC[C@H](NC(=O)CCCCCCCCCCCCCCCCCCC(=O)O)C(=O)O)NC(=O)[C@@H](NC(=O)[C@H](Cc1ccccc1)NC(=O)[C@H](CC(=O)O)NC(=O)[C@H](CCC(N)=O)NC(=O)[C@H](C)NC(=O)C(C)(C)NC(=O)[C@H](CCCNC(=N)N)NC(=O)[C@H](CO)NC(=O)[C@H](CC(=O)O)NC(=O)[C@H](CC(C)C)NC(=O)[C@](C)(Cc1ccccc1)NC(=O)[C@H](CCCCN)NC(=O)[C@H](CO)NC(=O)[C@@H](NC(=O)[C@H](CC(=O)O)NC(=O)[C@H](CO)NC(=O)[C@@H](NC(=O)[C@](C)(Cc1ccccc1)NC(=O)[C@H](CO)NC(=O)CNC(=O)[C@H](Cc1c[nH]cn1)NC(=O)C(C)(C)NC(=O)[C@@H](N)Cc1c[nH]cn1)[C@@H](C)O)C(C)C)C(C)C)C(=O)N[C@@H](C)C(=O)N[C@@H](CC(N)=O)C(=O)N[C@H](C(N)=O)[C@@H](C)O [Peptide 368, H(Aib)HGS(αMePhe)TSDVSK(αMePhe)LDSR(Aib)AQDFVK(O2OC-O2OC-γE-C20diacid)24WIANT-amide] (H-H[Aib]HGS[αMeF]TSDVSK[αMeF]LDSR[Aib]AQDFVK([AEEA-AEEA-γGlu-C20 diacid])WIANT-NH2; N-terminus assumed)	3.1	
